Data from patent US20160002248A1, “GLS1 INHIBITORS FOR TREATING DISEASE” (Board of Regents, The University of Texas System, priority 2014, published 2016).

Tests used:
[1] = target: T1, purified recombinant human GAC (GLS1) (Homo sapiens, UniProt O94925); assay: GLS1 Enzymatic Activity Assay (dual-coupled enzymatic assay); format: biochemical
T1 sequence (O94925 55-598 isoform O94925-3 limits assumed): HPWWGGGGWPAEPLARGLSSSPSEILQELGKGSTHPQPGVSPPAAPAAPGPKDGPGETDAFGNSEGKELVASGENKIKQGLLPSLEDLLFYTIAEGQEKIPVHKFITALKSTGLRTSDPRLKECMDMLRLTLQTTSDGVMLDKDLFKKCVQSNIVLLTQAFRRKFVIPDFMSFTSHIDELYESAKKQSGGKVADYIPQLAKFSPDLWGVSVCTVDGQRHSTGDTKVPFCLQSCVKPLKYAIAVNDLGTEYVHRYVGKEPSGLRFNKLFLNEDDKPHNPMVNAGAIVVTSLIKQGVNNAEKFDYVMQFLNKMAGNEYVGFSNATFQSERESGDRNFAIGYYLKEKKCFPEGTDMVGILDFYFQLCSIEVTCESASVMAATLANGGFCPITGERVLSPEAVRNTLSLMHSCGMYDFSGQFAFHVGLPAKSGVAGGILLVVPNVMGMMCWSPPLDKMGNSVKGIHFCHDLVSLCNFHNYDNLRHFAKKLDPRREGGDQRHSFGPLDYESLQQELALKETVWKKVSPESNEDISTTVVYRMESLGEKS
How it was run: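 In this coupled fluorometric format, phosphate-activated GAC (2 nM, 50 mM phosphate) is pre-exposed to compound for 10 min before 1 mM glutamine addition. Product is tracked as resorufin (530/590 nm) over time or at 20 min, and potency is derived by logistic fitting.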

[2] = test system: A549 cells; assay: Proliferation Assay (A549 cell viability, Cell Titer Fluor); format: cell-based; conditions: Homo sapiens, 72 hours
How it was run: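 A549 cells seeded at 1000 cells/well, left 24 h, then exposed to compound for 72 h at 37 °C, 5% CO2, final DMSO 0.5% (v/v). Viability read by Cell Titer Fluor fluorescence; EC50 from four-parameter logistic fit.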

SMILES | IC50 [1] | EC50 [2]
O=C(NCc1cccc(C(F)(F)F)n1)c1cn(CCCCc2cc3c(-c4ccc(F)cc4F)c(C4CC4)[nH]c3nn2)nn1 [Example 220, 1-{4-[6-cyclopropyl-5-(2,4-difluorophenyl)-7H-pyrrolo[2,3-c]pyridazin-3-yl]butyl}-N-{[6-(trifluoromethyl)pyridin-2-yl]methyl}-1H-1,2,3-triazole-4-carboxamide] | < 100 nM | 100 to 500 nM
O=C(NCc1cc(OC(F)(F)F)ccc1F)c1cn(CCCCc2cc3cc(C4CN(C(=O)C5CCC5)C4)[nH]c3nn2)nn1 [Example 223, 1-{4-[6-(1-cyclobutanecarbonylazetidin-3-yl)-7H-pyrrolo[2,3-c]pyridazin-3-yl]butyl}-N-{[2-fluoro-5-(trifluoromethoxy)phenyl]methyl}-1H-1,2,3-triazole-4-carboxamide] | < 100 nM | < 100 nM
O=C(NCc1cc(OC(F)(F)F)ccc1F)c1cn(CCCCc2cc3cc(C4CN(C(=O)C5(C(F)(F)F)CC5)C4)[nH]c3nn2)nn1 [Example 225, N-{[2-fluoro-5-(trifluoromethoxy)phenyl]methyl}-1-[4-(6-{1-[1-(trifluoromethyl)cyclopropane-carbonyl]azetidin-3-yl}-7H-pyrrolo[2,3-c]pyridazin-3-yl)butyl]-1H-1,2,3-triazole-4-carboxamide] | < 100 nM | < 100 nM
COc1ccccc1-c1cc2cc(CCCCn3cc(C(=O)NCc4ccc(C)nc4)nn3)nnc2[nH]1 [Example 228, 1-{4-[6-(2-methoxyphenyl)-7H-pyrrolo[2,3-c]pyridazin-3-yl]butyl}-N-[(6-methylpyridin-3-yl)methyl]-1H-1,2,3-triazole-4-carboxamide] | < 100 nM | < 100 nM
CC(C)S(=O)(=O)N1CC(c2cc3cc(CCCCn4cc(C(=O)NCc5cc(OC(F)(F)F)ccc5F)nn4)nnc3[nH]2)C1 [Example 230, N-{[2-fluoro-5-(trifluoromethoxy)phenyl]methyl}-1-(4-{6-[1-(propane-2-sulfonyl)azetidin-3-yl]-7H-pyrrolo[2,3-c]pyridazin-3-yl}butyl)-1H-1,2,3-triazole-4-carboxamide] | < 100 nM | 100 to 500 nM
Cc1ccc(CNC(=O)c2cn(CC(F)CCc3cc4cc(C5CC5)[nH]c4nn3)nn2)cn1 (stereo not drawn) [Example 231, 1-(4-{6-cyclopropyl-7H-pyrrolo[2,3-c]pyridazin-3-yl)-2-fluorobutyl)-N-[(6-methylpyridin-3-yl)methyl]-1H-1,2,3-triazole-4-carboxamide] | < 100 nM | 100 to 500 nM
O=C(NCc1cc(OC(F)(F)F)ccc1F)c1cn(CCCCc2cc3cc(C4CN(C(=O)OC5CCC5)C4)[nH]c3nn2)nn1 [Example 233, cyclobutyl 3-(3-{4-[4-({[2-fluoro-5-(trifluoromethoxy)phenyl]methyl}carbamoyl)-1H-1,2,3-triazol-1-yl]butyl}-7H-pyrrolo[2,3-c]pyridazin-6-yl)azetidine-1-carboxylate] | < 100 nM | < 100 nM
O=C(NCc1cc(OC(F)(F)F)ccc1F)c1cn(CCCCc2cc3cc(C4CN(S(=O)(=O)C(F)(F)F)C4)[nH]c3nn2)nn1 [Example 234, N-{[2-fluoro-5-(trifluoromethoxy)phenyl]methyl}-1-{4-[6-(1-trifluoromethanesulfonyl-azetidin-3-yl)-7H-pyrrolo[2,3-c]pyridazin-3-yl]butyl}-1H-1,2,3-triazole-4-carboxamide] | < 100 nM | < 100 nM
Cc1ccc(CNC(=O)c2cn(CCCCc3cc4cc(-c5ccccc5Cl)[nH]c4nn3)nn2)cn1 [Example 236, 1-{4-[6-(2-chlorophenyl)-7H-pyrrolo[2,3-c]pyridazin-3-yl]butyl}-N-[(6-methylpyridin-3-yl)methyl]-1H-1,2,3-triazole-4-carboxamide] | < 100 nM | 100 to 500 nM
O=C(NCc1cc(OC(F)(F)F)ccc1F)c1cn(CCCCc2cc3cc(C4CN(C(=O)Cc5ccccc5)C4)[nH]c3nn2)nn1 [Example 238, N-{[2-fluoro-5-(trifluoromethoxy)phenyl]methyl)-1-(4-{6-[1-(2-phenylacetyl)azetidin-3-yl]-7H-pyrrolo[2,3-c]pyridazin-3-yl}butyl)-1H-1,2,3-triazole-4-carboxamide] | < 100 nM | < 100 nM
CC(C)(O)c1ccnc(CNC(=O)c2cn(CCCCc3cc4cc(-c5ccccc5F)[nH]c4nn3)nn2)c1 [Example 239, 1-{4-[6-(2-fluorophenyl)-7H-pyrrolo[2,3-c]pyridazin-3-yl]butyl}-N-{[4-(2-hydroxypropan-2-yl)pyridin-2-yl]methyl}-1H-1,2,3-triazole-4-carboxamide] | < 100 nM | 100 to 500 nM
CNC(=O)c1cn(CCCCc2cc3cc(-c4ccccc4F)[nH]c3nn2)nn1 [Example 240, 1-{4-[6-(2-fluorophenyl)-7H-pyrrolo[2,3-c]pyridazin-3-yl]butyl}-N-methyl-1H-1,2,3-triazole-4-carboxamide] | 100 to 500 nM | 100 to 500 nM

Second part, the compound after the results:

IC50 [1] | EC50 [2] | SMILES
< 100 nM | < 100 nM | O=C(NCc1cncc(C(F)(F)F)c1)c1cn(CCCCc2cc3c(-c4ccc(F)cc4F)c(C4CC4)[nH]c3nn2)nn1 [Example 221, 1-{4-[6-cyclopropyl-5-(2,4-difluorophenyl)-7H-pyrrolo[2,3-c]pyridazin-3-yl]butyl}-N-{[5-(trifluoromethyl)pyridin-3-yl]methyl}-1H-1,2,3-triazole-4-carboxamide]
< 100 nM | 100 to 500 nM | O=C(NCc1ccc(CF)nc1)c1cn(CCCCc2cc3c(-c4ccc(F)cc4F)c(C4CC4)[nH]c3nn2)nn1 [Example 222, 1-{4-[6-cyclopropyl-5-(2,4-difluorophenyl)-7H-pyrrolo[2,3-c]pyridazin-3-yl]butyl}-N-{[6-(fluoromethyl)pyridin-3-yl]methyl}-1H-1,2,3-triazole-4-carboxamide]
< 100 nM | 100 to 500 nM | O=C(NCc1cc(OC(F)(F)F)ccc1F)c1cn(CCCCc2cc3cc(C4CN(C(=O)C5CC5)C4)[nH]c3nn2)nn1 [Example 224, 1-{4-[6-(1-cyclopropanecarbonylazetidin-3-yl)-7H-pyrrolo[2,3-c]pyridazin-3-yl]butyl}-N-{[2-fluoro-5-(trifluoromethoxy)phenyl]methyl}-1H-1,2,3-triazole-4-carboxamide]
< 100 nM | 100 to 500 nM | O=C(NCc1cc(OC(F)(F)F)ccc1F)c1cn(CCCCc2cc3cc(C4CN(C(=O)C5CC(F)(F)C5)C4)[nH]c3nn2)nn1 [Example 226, 1-(4-{6-[1-(3,3-difluorocyclobutanecarbonyl)azetidin-3-yl]-7H-pyrrolo[2,3-c]pyridazin-3-yl}butyl)-N-{[2-fluoro-5-(trifluoromethoxy)phenyl]methyl}-1H-1,2,3-triazole-4-carboxamide]
< 100 nM | < 100 nM | CC(C)(F)C(=O)N1CC(c2cc3cc(CCCCn4cc(C(=O)NCc5cc(OC(F)(F)F)ccc5F)nn4)nnc3[nH]2)C1 [Example 227, 1-(4-{6-[1-(2-fluoro-2-methylpropanoyl)azetidin-3-yl]-7H-pyrrolo[2,3-c]pyridazin-3-yl}butyl)-N-{[2-fluoro-5-(trifluoromethoxy)phenyl]methyl}-1H-1,2,3-triazole-4-carboxamide]
< 100 nM | < 100 nM | CC(C)(C(=O)N1CC(c2cc3cc(CCCCn4cc(C(=O)NCc5cc(OC(F)(F)F)ccc5F)nn4)nnc3[nH]2)C1)C(F)(F)F [Example 229, N-(2-fluoro-5-(trifluoromethoxy)benzyl)-1-(4-(6-(1-(3,3,3-trifluoro-2,2-dimethylpropanoyl)azetidin-3-yl)-7H-pyrrolo[2,3-c]pyridazin-3-yl)butyl)-1H-1,2,3-triazole-4-carboxamide]
< 100 nM | 100 to 500 nM | Cc1ccc(CNC(=O)c2cn(CCCCc3cc4cc(-c5cc(F)cc(F)c5)[nH]c4nn3)nn2)cn1 [Example 232, 1-{4-[6-(3,5-difluorophenyl)-7H-pyrrolo[2,3-c]pyridazin-3-yl]butyl}-N-[(6-methylpyridin-3-yl)methyl]-1H-1,2,3-triazole-4-carboxamide]
< 100 nM | 500 to 5000 nM | O=C(NCc1cc(OC(F)(F)F)ccc1F)c1cn(CCCCc2cc3cc(C4CN(C(=O)C5COC5)C4)[nH]c3nn2)nn1 [Example 235, N-{[2-fluoro-5-(trifluoromethoxy)phenyl]methyl}-1-(4-{6-[1-(oxetane-3-carbonyl)azetidin-3-yl]-7H-pyrrolo[2,3-c]pyridazin-3-yl}butyl)-1H-1,2,3-triazole-4-carboxamide]
< 100 nM | 100 to 500 nM | COCCOC(=O)N1CC(c2cc3cc(CCCCn4cc(C(=O)NCc5cc(OC(F)(F)F)ccc5F)nn4)nnc3[nH]2)C1 [Example 237, 2-methoxyethyl 3-(3-{4-[4-({[2-fluoro-5-(trifluoromethoxy)phenyl]methyl}carbamoyl)-1H-1,2,3-triazol-1-yl]butyl}-7H-pyrrolo[2,3-c]pyridazin-6-yl)azetidine-1-carboxylate]
